Assay results from patent publication US20260217662A1, “PROCESSES FOR PREPARING TRIAZOLE GLYCOLATE OXIDASE INHIBITORS” (CANTERO THERAPEUTICS, INC., priority 2020, published 2026).

Molecular target: T1, human glycolate oxidase (hGO) (Homo sapiens, UniProt Q9UJM8)
T1 construct: His-tag (6 histidines) (N); made in house; host or cells: E. coli BL21 (DE3)
T1 sequence (Q9UJM8 1-370): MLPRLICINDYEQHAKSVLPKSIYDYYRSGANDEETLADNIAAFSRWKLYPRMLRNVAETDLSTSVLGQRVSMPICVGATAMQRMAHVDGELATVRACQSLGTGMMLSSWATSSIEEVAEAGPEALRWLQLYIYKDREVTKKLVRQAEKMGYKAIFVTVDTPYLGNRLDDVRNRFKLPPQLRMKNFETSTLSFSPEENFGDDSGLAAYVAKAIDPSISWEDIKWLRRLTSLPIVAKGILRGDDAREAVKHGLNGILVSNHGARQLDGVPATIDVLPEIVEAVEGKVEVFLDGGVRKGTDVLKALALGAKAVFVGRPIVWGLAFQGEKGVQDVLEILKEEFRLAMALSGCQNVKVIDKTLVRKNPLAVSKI
Experiment: In vitro inhibition of human glycolate oxidase (enzymatic assay, coupled HRP/Trinder reaction)
Format: biochemical
Conditions: recombinant hGO, 40 mM glycolic acid, pH 7, activity at 1 minute, read at 515 nm
Source text: The catalytic reactions used for assaying glycolate oxidase activity in the presence of compounds according to the present disclosure are outlined in FIG. 9. Glycolate oxidase (GO)-catalyzed conversion of glycolate to glyoxylate (top reaction), with the concomitant reduction of the cofactor flavin mononucleotide (FMN), uses molecular oxygen (O2) for recovering its oxidative state, releasing hydrogen peroxide (H2O2). The Trinder reaction (bottom reaction), in which horseradish peroxidase (HRP) uses hydrogen peroxide, 4-aminoantipyrine and a phenol derivative (sulphonated DCIP) to generate a quinoneimine dye that is spectrophotometrically measured.
Human glycolate oxidase (hGO) expression: BL21 (DE3) E. coli transformed with recombinant pET-15b expression vector with the N-terminal His-tag human Hao1 cDNA was grown in LB medium in the presence of 0.1 mg/ml ampicillin. […] Protein were quantified by the bicinchoninic acid (BCA) assay.
Enzymatic assays: Enzymatic activity of hGO was determined in the presence of glycolate as substrate (40 mM glycolic acid) and phosphate buffer (50 mM KPO4, 0.1 mM EDTA, pH 7). The production of glyoxylate was indirectly measured by the quantification of hydrogen peroxide formed during the first oxidation reaction. […] Enzymatic activity was calculated at 1 minute after initiation of the Trinder reaction.

| IC50 [µM] | SMILES |
| --- | --- |
| < 0.1 | O=C(O)c1nn[nH]c1Oc1ccc(-c2ccc(C3CCC(F)(F)C3)cc2)cc1 (centres unmarked) [Ib-1, 5-((4′-(3,3-difluorocyclopentyl)-[1,1′-biphenyl]-4-yl)oxy)-1H-1,2,3-triazole-4-carboxylic acid] |
| < 0.1 | O=C(O)c1nn[nH]c1Oc1ccc(-c2ccc(C3CCC(F)(F)CC3)cc2)cc1 [Ic-1, 5-((4′-(4,4-difluorocyclohexyl)-[1,1′-biphenyl]-4-yl)oxy)-1H-1,2,3-triazole-4-carboxylic acid] |
